Data published in patent US20240034736A1, “HSD17B13 INHIBITORS AND USES THEREOF” (FL2022-001, Inc., priority 2020, published 2024).

Target: Recombinant human HSD17B13 enzyme (Homo sapiens (Human), UniProt Q7Z5P4)
Experiment: HSD17b13 NAD(P)H-Glo Biochemical Assay
Conditions: 50 uM estradiol, 1 mM NAD+; read-out: HSD17β13 IC50
Procedure: Recombinant human HSD17B13 enzyme. Substrate: estradiol (Sigma β-Estradiol E8875), 100 mM in DMSO. […] Assay buffer final concentration: 20 mM Tris pH7.4 with 0.002% Tween-20 and 0.02% BSA. […] Enzymatic activity detected by NAD(P)H-Glo™ Detection System (Promega G9062).
Inhibitor compounds were serially diluted in DMSO and then further diluted in assay buffer to a 10× concentration consisting of 1% DMSO.
HSD17b13 enzyme was diluted in 1× assay buffer to the desired enzyme concentration based on the specific activity of the enzyme lot. 20 uL of diluted enzyme was added to each well along with 2.5 uL of 10× inhibitor solution. Assay plate was incubated at RT for 20 minutes, and then 2.5 uL of a 10× substrate/cofactor mix was added to each well for a final concentration of 50 uM estradiol and 1 mMNAD+. Assay plate was incubated at 37° C. for 3 hours. NAD(P)H-Glo™ Detection System reagents were prepared according to manufacturer's specifications, and 25 uL was added to each well. After incubating for 1 hour at RT, luminescence was measured.

Recombinant human HSD17B13 enzyme, sequence (Q7Z5P4 20-300): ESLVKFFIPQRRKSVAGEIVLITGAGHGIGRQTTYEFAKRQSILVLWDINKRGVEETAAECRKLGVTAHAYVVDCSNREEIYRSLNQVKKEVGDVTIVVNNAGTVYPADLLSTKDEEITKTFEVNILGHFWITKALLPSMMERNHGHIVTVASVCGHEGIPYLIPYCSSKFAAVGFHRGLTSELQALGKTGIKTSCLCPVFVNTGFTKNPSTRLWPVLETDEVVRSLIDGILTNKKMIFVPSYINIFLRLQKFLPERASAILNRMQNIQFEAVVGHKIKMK

| SMILES | IC50 [nM] |
| --- | --- |
| OCc1ccc(-c2ccc3c(cnn3-c3ccc(F)c(O)c3)c2)c(Cl)c1 [Compound 5.12, 5-(5-(2-Chloro-4-(hydroxymethyl)phenyl)-1H-indazol-1-yl)-2-fluorophenol] | 100 to 1000 |
| COCC1(c2ccc3c(cnn3-c3cc(O)c(F)c(F)c3)c2)CCN(S(C)(=O)=O)CC1 [Compound 28.02, 2,3-Difluoro-5-(5-(4-(meth-oxymethyl)-1-(methylsul-fonyl)piperidin-4-yl)-1H-indazol-1-yl)phenol] | 100 to 1000 |
| O=C(O)C1CCN(c2ccc3c(cnn3-c3ccc(F)c(O)c3)c2)CC1 [Compound 20.02, 1-(1-(4-Fluoro-3-hydroxy-phenyl)-1H-indazol-5-yl)-piperidine-4-carboxylic acid] | 1000 to 30000 |
| CS(=O)(=O)N1CCN(c2ccc3c(cnn3-c3ccc(F)c(O)c3)c2)CC1 [Compound 20, 2-Fluoro-5-(5-(4-(methylsulfonyl)piperazin-1-yl)-1H-indazol-1-yl)phenol] | 1000 to 30000 |
| Cc1nn(-c2cc(C(F)(F)F)c(F)c(O)c2F)c2ccc(N3CCOCC34CC4)nc12 [Compound 19.48, 2,6-Difluoro-3-(3-methyl-5-(7-oxa-4-azaspiro[2.5]octan-4-yl)-1H-pyrazolo[4,3-b]pyridine-1-yl)-5-(trifluoromethyl)phenol] | 100 to 1000 |
| Oc1cc(-n2ncc3nc(-c4ccc(O)c(Cl)c4)ncc32)ccc1F [Compound 5.28, 2-Chloro-4-(1-(4-fluoro-3-hydroxyphenyl)-1H-pyrazolo[4,3-d]pyrimidin-5-yl)phenol] | 1000 to 30000 |
| CN(C)c1nn(-c2cc(C(F)(F)F)c(F)c(O)c2F)c2ccc(N(C)C3CCOCC3)cc12 [Compound 19.76, 3-(3-(Dimethylamino)-5-(methyl(tetrahydro-2H-pyran-4-yl)amino)-1H-indazol-1-yl)-2,6-difluoro-5-(trifluoromethyl)phenol] | 100 to 1000 |
| CN(c1ccc2c(c1)c(C(N)=O)nn2-c1cc(C(F)(F)F)c(F)c(O)c1F)C1CCOCC1 [Compound 19.111, 1-(2,4-Difluoro-3-hydroxy-5-(trifluoromethyl)phenyl)-5-(methyl(tetrahydro-2H-pyran-4-yl)amino)-1H-indazole-3-carboxamide] | 100 to 1000 |
| COC1CCN(c2cc3c(C)nn(-c4cc(C(F)(F)F)c(F)c(O)c4F)c3cn2)C2(CC2)C1 (stereo not drawn) [Compound 19.52, 2,6-Difluoro-3-(5-(7-methoxy-4-azaspiro[2.5]octan-4-yl)-3-methyl-1H-pyrazolo[3,4-c]pyridine-1-yl)-5-(trifluoromethyl)phenol] | < 100 |
| Cc1nn(-c2cc(C(F)(F)F)c(F)c(O)c2F)c2ccc(N(C)C3CCOCC3)c(F)c12 [Compound 19.101, 2,6-Difluoro-3-(4-fluoro-3-methyl-5-(methyl(tetrahydro-2H-pyran-4-yl)amino)-1H-indazol-1-yl)-5-(trifluoromethyl)phenol] | 100 to 1000 |
| CC(=O)N1CCC(c2ccc3c(cnn3-c3ccc(F)c(O)c3)c2)CC1 [Compound 26, 1-(4-(1-(4-Fluoro-3-hydroxyphenyl)-1H-indazol-5-yl)piperidin-1-yl)ethan-1-one] | 1000 to 30000 |
| CS(=O)(=O)Nc1ccc(-c2ccc3c(cnn3-c3ccc(F)c(O)c3)c2)cn1 [Compound 11.02, N-(5-(1-(4-Fluoro-3-hydroxyphenyl)-1H-indazol-5-yl)pyridine-2-yl)methanesulfonamide] | 1000 to 30000 |
| Cc1nn(-c2cc(C(F)(F)F)c(F)c(O)c2F)c2cnc(N(C)C3CCOCC3)cc12 [Compound 19.47, 2,6-Difluoro-3-(3-methyl-5-(methyl(tetrahydro-2H-pyran-4-yl)amino)-1H-pyrazolo[3,4-c]pyridin-1-yl)-5-(trifluoromethyl)phenol] | < 100 |
| O=S(=O)(CC1CC1)NC1CN(c2cc3cnn(-c4cc(O)c(F)c(F)c4)c3cc2Cl)C1 [Compound 21.37, N-(1-(6-Chloro-1-(3,4-difluoro-5-hydroxyphenyl)-1H-indazol-5-yl)azetidin-3-yl)-1-cyclo-propylmethanesulfonamide] | 100 to 1000 |
| Cc1nn(-c2cc(C(F)(F)F)c(Cl)c(O)c2F)c2cnc(N3CCOCC34CC4)cc12 [Compound 19.116, 2-Chloro-6-fluoro-5-(3-methyl-5-(7-oxa-4-azaspiro[2.5]octan-4-yl)-1H-pyrazolo[3,4-c]pyridin-1-yl)-3-(trifluoromethyl)phenol] | < 100 |
| Cc1nn(-c2cc(C(F)(F)F)c(F)c(O)c2F)c2cnc(N3CCC(OCCN(C)C)CC3)cc12 [Compound 19.60, 3-(5-(4-(2-(Dimethylamino)ethoxy)piperidin-1-yl)-3-methyl-1H-pyrazolo[3,4-c]pyridine-1-yl)-2,6-difluoro-5-(trifluoromethyl)phenol] | 100 to 1000 |
| Oc1cc(-n2ncc3cc(-c4cccc(Cl)c4)ccc32)ccc1F [Compound 1.01, 5-(5-(3-Chlorophenyl)-1H-indazol-1-yl)-2-fluorophenol] | 100 to 1000 |
| Cc1nn(-c2cc(C(F)(F)F)c(F)c(O)c2F)c2cnc(N3CC(C)(C)OC(C)(C)C3)nc12 [Compound 19.79, 2,6-Difluoro-3-(3-methyl-5-(2,2,6,6-tetramethylmorpholino)-1H-pyrazolo[4,3-d]pyrimidin-1-yl)-5-(trifluoromethyl)phenol] | < 100 |
| Oc1cc(-n2ncc3cc(N4CCCCC4)ncc32)cc(C(F)(F)F)c1F [Compound 21.42, 2-Fluoro-5-(5-(piperidin-1-yl)-1H-pyrazolo[3,4-c]pyridine-1-yl)-3-(trifluoromethyl)phenol] | 100 to 1000 |
| CC1(C)CN(S(C)(=O)=O)CCN1c1cc2cn(-c3cc(O)c(F)c(C(F)(F)F)c3)nc2cn1 [Compound 19.05, 5-(5-(2,2-Dimethyl-4-(methylsulfonyl)piperazin-1-yl)-2H-pyrazolo[3,4-c]pyridine-2-yl)-2-fluoro-3-(trifluoromethyl)phenol] | 100 to 1000 |
| CN(C)C(=O)c1nn(-c2ccc(F)c(O)c2)c2ccc(-c3ccc(O)c(Cl)c3)cc12 [Compound 14, 5-(3-Chloro-4-hydroxyphenyl)-1-(4-fluoro-3-hydroxyphenyl)-N,N-dimethyl-1H-indazole-3-carboxamide] | 100 to 1000 |
| Cc1cc(-n2ncc3cc(N4CCN(S(C)(=O)=O)CC4)ncc32)cc(O)c1F [Compound 19.23, 2-Fluoro-3-methyl-5-(5-(4-(methylsulfonyl)piperazin-1-yl)-1H-pyrazolo[3,4-c]pyridine-1-yl)phenol] | 1000 to 30000 |
| O=S(=O)(c1ccc2c(cnn2-c2cc(O)c(F)c(F)c2)c1)N1CCCCC1 [Compound 30, 2,3-Difluoro-5-(5-(piperidin-1-ylsulfonyl)-1H-indazol-1-yl)phenol] | 1000 to 30000 |
| CS(=O)(=O)N1CCN(c2ccc3c(cnn3-c3cc(C(F)(F)F)cc(O)n3)c2)CC1 [Compound 31, 6-(5-(4-(Methylsulfonyl)piperazin-1-yl)-1H-indazol-1-yl)-4-(trifluoromethyl)pyridin-2-ol] | 100 to 1000 |
| Cc1nn(-c2cc(C(F)(F)F)c(F)c(O)c2F)c2cnc(N3CCO[C@H](c4ccccc4)C3)cc12 [Compound 19.108, (R)-2,6-Difluoro-3-(3-methyl-5-(2-phenylmorpholino)-1H-pyrazolo[3,4-c]pyridin-1-yl)-5-(trifluoromethyl)phenol] | < 100 |
| Oc1cc(-n2ncc3cc(-c4ccc(O)c(Cl)c4)cnc32)ccc1F [Compound 8.01, 2-Chloro-4-(1-(4-fluoro-3-hydroxyphenyl)-1H-pyrazolo[3,4-b]pyridine-5-yl)phenol] | 100 to 1000 |
| Cc1nn(-c2cc(C(F)(F)F)c(F)c(O)c2F)c2cnc(N3CCC(Oc4ccccc4)CC3)cc12 [Compound 19.55, 2,6-Difluoro-3-(3-methyl-5-(4-phenoxypiperidin-1-yl)-1H-pyrazolo[3,4-c]pyridine-1-yl)-5-(trifluoromethyl)phenol] | 100 to 1000 |
| CN(c1ccc2c(c1)c(C1CC1)nn2-c1cc(C(F)(F)F)c(F)c(O)c1F)C1CCOCC1 [Compound 19.75, 3-(3-Cyclopropyl-5-(methyl(tetrahydro-2H-pyran-4-yl)amino)-1H-indazol-1-yl)-2,6-difluoro-5-(trifluoromethyl)phenol] | 100 to 1000 |
| CS(=O)(=O)Nc1ccccc1-c1ccc2c(cnn2-c2ccc(F)c(O)c2)c1 [Compound 5.14, N-(2-(1-(4-Fluoro-3-hydroxyphenyl)-1H-indazol-5-yl)phenyl)methanesulfonamide] | 1000 to 30000 |
| Oc1cc(-n2ncc3cc(-c4ccc(O)c(Cl)c4)ccc32)ccc1F [Compound 4, 2-Chloro-4-(1-(4-fluoro-3-hydroxyphenyl)-1H-indazol-5-yl)phenol] | 100 to 1000 |

Same assay, conditions: read-out: HSD17β13 inhibition at 10 uM

| SMILES | inhibition at 10 µM [%] |
| --- | --- |
| Cc1nn(-c2cc(O)c(F)c(C(=O)O)c2)c2cnc(N3CCOCC34CC4)cc12 [Compound 19.121, 2-Fluoro-3-hydroxy-5-(3-methyl-5-(7-oxa-4-azaspiro[2.5]octan-4-yl)-1H-pyrazolo[3,4-c]pyridin-1-yl)benzoic Acid] | < 20 |
| CN(C)C(=O)C1(c2ccc3c(cnn3-c3cc(O)c(F)c(F)c3)c2)CCN(S(C)(=O)=O)CC1 [Compound 29.01, 4-(1-(3,4-Difluoro-5-hydroxy-phenyl)-1H-indazol-5-yl)-N,N-dimethyl-1-(methyl-sulfonyl)piperidine-4-carbox-amide] | < 20 |

Same assay, conditions: read-out: HSD17β13 inhibition at 30 uM

| SMILES | inhibition at 30 µM [%] |
| --- | --- |
| CS(=O)(=O)N1CCN(c2cc3cnn(-c4cc(O)cc(C#N)c4)c3cn2)CC1 [Compound 19.123, 3-Hydroxy-5-(5-(4-(methylsulfonyl)piperazin-1-yl)-1H-pyrazolo[3,4-c]pyridin-1-yl)benzonitrile] | 30 |
